Laboratory results taken from patent US20160297828A1, “SPIROCYCLIC COMPOUNDS CONTAINING SPIRO[INDOLYL-3,1'-PYRROLO[3,4-C]PYRROLE] CORE AND SULPHUR-CONTAINING AMINO ACID RESIDUES” (priority 2013, published 2016).
Several values for one entry are separate records, joined by “and”; a condition that tells them apart may be missing. Identical values can stand only once.

Tests used:
[1] = system: rats with intracerebral hemorrhage; assay: Neurological deficit (C. P. McGrow stroke-index scale) in rats with intracerebral hemorrhage; format: in vivo; conditions: n = 15
Procedure: (§1) Neuroprotective effect of 3,2′-spiro-pyrrolo-2-oxindole derivative (SI-86 compound) was studied on IUD model of moderate severity modeled under propofol anesthesia (60 mg/kg intraperitoneally (ip)) by autoblood administration into the brain internal capsule (stereotactic coordinates of the projection: H=7.0 mm, L=3.0 mm, A=1.5 mm from bregma) ([…]) (Method for reproduction of intracerebral hemorrhage in rats/O. K. Yarosh, S. V. Kyrychenko, S. P. Halimonchyk [et al.]//Circulation and hemostasis.-2005.-No. 1.-P. 77-81). The chosen model allows to reproduce clinical pattern of […] and is adequate for clinical study of potential neuroprotective agents.
(§2) As comparators the following drugs were used: mexydol (“Mexydol” UC Pharmasoft, Russia), 100 mg/kg; citicoline (“Somazina” Ferrer International, SA, Spain), 250 mg/kg; aktovegin (“Aktovegin”, Nycomed, Austria), 16 mg/kg pyracetam (“Pyracetam” Darnitsa, Ukraine), 400 mg/kg. According to the latest clinical guidelines regarding the treatment of patients with CVA approved by the Ministry of Health of Ukraine (Order No. 602 dated 3 Aug. 2012), all these drugs are allowed to be included into schemes for intensive patients therapy with CVA as neuroprotective agents. They were used at recommended doses for preclinical studies (McGrow C. P. Experimental Cerebral Infarction Effects of Pentobarbital in Mongolian Gerbils/C. P. McGrow//Arch. Neurol.-1977.-Vol. 34, No. 6.-P. 334-336). Experimental therapy of acute cerebral ischemia with SI-86 compound and comparator started 1 hour after IUD once a day for 21 days. The SI-86 derivative was investigated in conventionally effective dose of 10 mg/kg […] (iv)-dose that according to the results of our previous study provides maximum antihypoxic activity of SI-86 compound. Reference drugs were injected intraperitoneally (ip). Rats of control pathology group were injected by autoblood and as therapy 0.9% NaCI solution was administered calculated for 2 ml/kg […].
Neurological deficit in animals with acute CVA respectively in acute (4th day) and recovery (21 st day) periods was measured on C. P. McGrow stroke-index scale. The state severity was determined by amount of relevant points: to 3 points-mild, 3 to 7 points-average, above 7 points-severe degree. Pareses, paralyses of limbs, tremors, circus movement, ptoses, lateral positions, ability of rats to be maintained at the core of 15 cm diameter, rotating at the rate of 3 rpm were noted. The animals were tested daily by displaying the amount of points:
one-sided semi-ptosis—0.5 points; one-sided ptosis—1 point; tremor—0.5 points; circus movements—0.5 points; pareses of limbs (for each limb)—1 point; paralyses of limbs (for each limb)—2 points; lateral position—3 points; disability to maintain on rotating rod during 4 minutes—3 points.

[2] = system: rats with intracerebral hemorrhage; assay: Conditioned response of passive avoidance (CRPA) in rats with intracerebral hemorrhage; format: in vivo; conditions: 21st day, n = 15; for Latent period for entrance into dark compartment, prior study: SI-86 10 mg/kg iv, mexydol 100, citocoline 250, actovegin 16, pyracetam 400 mg/kg ip
Procedure: as §1, §2
(§3) Evaluation of the ability of animals to learn and memorize of aversive stimulus was examined in the test of conditioned response of passive avoidance (CRPA). The technique is based on innate rat instinct to limited shadowy space. The study in rats was conducted in two-compartment unit consisted of two sections—light and dark. An animal was arranged into light compartment, fixing latency time for entering into the dark compartment, wherein rat received current irritation and ran in the light compartment. CRPA retention was tested every other day under latency time change of rat entering into the dark compartment. Also the number of animals was noted not fully entered the dark chamber. Cerebroprotective efficiency criteria of studied compounds were also animal death term (days) and their mortality rate (in %).

[3] = system: 11β-corticosterone; assay: 11β-corticosterone level in venous blood of rats with bilateral carotid occlusion (ELISA); format: in vivo, Wistar rats; conditions: for dynamics in percents in relation to control pathology group / dynamics in percents in relation to the group of pseudo-operated animals / 11β-corticosterone level in venous blood: BCO
Procedure: The neuroprotective effect of 3,2′-spiro-pyrrolo-2-oxindole derivative (SI-86 compound) was studied in Wistar rats on a model of cerebrovascular accident (CVA) of ischemic type in archencephalic pool forming bilateral carotid occlusion (BCO) by carotid artery ligation. The ligations for common carotid arteries was imposed under propofol anesthesia at a dose of 60 mg/kg intraperitoneally (ip), using surgical access to the front of the neck cutting through its white line. The chosen model allows to reproduce the clinical pattern of ischemic stroke and is adequate for clinical study of potential neuroprotective substances (Drug discovery and Evaluation: pharmacological assays/H. Gerhard Vogel (ed.).-2nd ed. 1453p.).
The derivative of 3,2′-spiro-pyrrolo-2-oxindole was investigated in conventionally effective dose of 10 mg/kg […] (iv)—dose which is provided maximum antihypoxic activity of SI-86 compound by the results of our previous study. The reference drugs were injected intraperitoneally (ip). BCO was applied to the rats of control pathology and 0.9% NaCI solution was administered as therapy calculated for 2 ml/kg ip.
Pseudo-operated rats were exposed to all interventions (anesthesia, skin incision, dissection of vessels) except arteries ligation that leveled traumatic impact of experimental conditions.
To determine a corticosterone level (species-specific cortisol analogue in rats, which is also a substrate for 11β-HSD1) in the corresponding period (4 th and 21 st CVA day) in rat by sagittal sinus puncture, blood was sampled (0.2-0.4 ml). The cortisol level was measured by ELISA using a CORTICOSTERONEE KIT set (Germany) on the instrument of the company “Hipson” (Czech Republic).

[4] = system: neuron-specific enolase (NSE); assay: Neuron-specific enolase (NSE) activity in rats with bilateral carotid occlusion (ELISA); format: in vivo; conditions: BCO; for NSE activity (dynamics of neurodestructive changes): n = 7
Procedure: The derivative of 3,2′-spiro-pyrrolo-2-oxindole was studied in conventionally effective dose of 10 mg/kg […] (iv)—dose that by the results of our previous study provided maximum antihypoxic activity of the SI-86compound. Reference drugs were injected intraperitoneally (ip). […] BCO was made to rats of control pathology and as therapy 0.9% NaCI solution was administered calculated for 2 ml/kg ip.
Pseudooperative rats were exposed to all interventions (anesthesia, skin incision, dissection of vessels) except arteries ligation that leveled traumatic effect of experimental conditions.
To determine neurospecific enolase, specific marker of cerebral ischemia,—to the period (4 th and 21 st day of CVA) in rat's blood was sampled by sagittal sinus puncture (0.2-0.4 ml). NSE activity was measured by ELISA using a set NSE EIA KIT (DAI, USA) on the instrument of the company “Hipson” (Czech Republic).

[5] = system: neuron-specific enolase (NSE); assay: Neuron-specific enolase (NSE) activity in rats with intracerebral hemorrhage (ELISA); format: in vivo; conditions: for NSE activity (dynamics of neurodestructive changes): acute cerebral hemorrhage, n = 7; for enzyme activity decreased in relation to the control pathology group: hemorrhage
Procedure: The derivative of 3,2′-spiro-pyrrolo-2-oxindole was investigated in conventionally effective dose of 10 mg/kg […] (iv)—dose that according to the results of our previous studies provided maximum antihypoxic activity of SI-86 compound. Reference drugs were injected intraperitoneally (ip). […] Autoblood was injected to rats with control pathology and 0.9% NaCI solution was administered as therapy calculated for 2 ml/kg ip.
Psevdooperated rats were exposed to all interventions (anesthesia, craniotomy) with the exception of autoblood administration that leveled traumatic impact of experimental conditions.
To determine neuron-specific enolase, the specific marker of cerebral ischemia,—for corresponding period (4 th and 21 st day of CVA) in rats, blood was sampled by sagittal sinus puncture (0.2-0.4 ml). NSE activity was measured by ELISA using a set NSE EIA KIT (DAI, USA) on the instrument of the company “Hipson” (Czech Republic).

[6] = system: rats with intracerebral hemorrhage; assay: Lethality of rats with intracerebral hemorrhage of average severity; format: in vivo
Procedure: The chosen model allows to reproduce clinical pattern of […] and is adequate for clinical study of potential neuroprotective agents.
As comparators the following drugs were used: mexydol (“Mexydol” UC Pharmasoft, Russia), 100 mg/kg; citicoline (“Somazina” Ferrer International, SA, Spain), 250 mg/kg; aktovegin (“Aktovegin”, Nycomed, Austria), 16 mg/kg pyracetam (“Pyracetam” Darnitsa, Ukraine), 400 mg/kg. According to the latest clinical guidelines regarding the treatment of patients with CVA approved by the Ministry of Health of Ukraine (Order No. 602 dated 3 Aug. 2012), all these drugs are allowed to be included into schemes for intensive patients therapy with CVA as neuroprotective agents. They were used at recommended doses for preclinical studies (McGrow C. P. Experimental Cerebral Infarction Effects of Pentobarbital in Mongolian Gerbils/C. P. McGrow//Arch. Neurol.-1977.-Vol. 34, No. 6.-P. 334-336). Experimental therapy of acute cerebral ischemia with SI-86 compound and comparator started 1 hour after IUD once a day for 21 days. […] Reference drugs were injected intraperitoneally (ip). Rats of control pathology group were injected by autoblood and as therapy 0.9% NaCI solution was administered calculated for 2 ml/kg iv.
Pseudo-operated rats were exposed to all interventions (anesthesia, craniotomy) excluding autoblood administration that leveled traumatic impact of experimental conditions.
as §3
Quantitative data were processed using statistical StatPlus 2009 processing. The statistical significance of differences was assessed by Fisher's angular transformation (lethality outcome), also parametric t Student criterion were used in case of normal distribution of variation series, nonparametric W White criterion—in its absence.

[7] = day 4, SI-86 10 mg/kg iv, mexydol 100, citocoline 250, actovegin 16, pyracetam 400 mg/kg ip
[8] = day 4, SI-86 10 mg/kg iv, citocoline 250 mg/kg ip
[9] = 12 h, SI-86 10 mg/kg iv, mexydol 100, citocoline 250, actovegin 16, pyracetam 400 mg/kg

C[N+](C)(C)CCOP(=O)(O)OP(=O)([O-])OC[C@H]1O[C@@H](n2ccc(N)nc2=O)[C@H](O)[C@@H]1O [citocoline, reference compound]
neurological deficit, average point under C. P. McGrow scale [1, 7]: 5.0 points and 5.00 ± 0.18°*^#$ points | neurological deficit, average point under C. P. McGrow scale ([1]; day 21, same doses): 3.1 points and 3.10 ± 0.15°*^#&$ points | Latent period for entrance into dark compartment, prior study [2]: 12.50 ± 0.75°*^# s | dynamics in percents in relation to control pathology group ([3]; day 4): [−41.7%] | dynamics in percents in relation to the group of pseudo-operated animals ([3]; day 4): (+126.9%) | 11β-corticosterone level in venous blood [3, 8]: 272.79 ± 1.95°* ng/ml | dynamics in percents in relation to control pathology group ([3]; day 21): [−30.2%] | dynamics in percents in relation to the group of pseudo-operated animals ([3]; day 21): (+152.7%) | 11β-corticosterone level in venous blood ([3]; day 21, same doses): 235.52 ± 7.82°*^• ng/ml | corticosterone concentration in sagittal sinus blood decreased in relation to the control pathology group ([3]; after 96 hours): 41.7% | corticosterone concentration in sagittal sinus blood decreased in relation to the control pathology group ([3]; after 21 days): 30.2% | enzyme activity decreased in relation to the control pathology group ([4]; 96 hours): 1.27 times | enzyme activity decreased in relation to the control pathology group ([4]; 21 days): 2.03 times | NSE activity (dynamics of neurodestructive changes) [4, 8]: 0.972 ± 0.010 | NSE activity (dynamics of neurodestructive changes) ([4]; day 21, same doses): 0.385 ± 0.010 | NSE activity (dynamics of neurodestructive changes) [5, 8]: 1.292 ± 0.069 | NSE activity (dynamics of neurodestructive changes) ([5]; day 21, same doses): 0.309 ± 0.05 | enzyme activity decreased in relation to the control pathology group ([5]; 96 hours): 2.2 times | enzyme activity decreased in relation to the control pathology group ([5]; 21 days): 3.1 times

NC(=O)CN1CCCC1=O [pyracetam]
Lethality, % [6, 9]: 4.9% | Lethality, abs. [6, 9]: 2 | Lethality, % ([6]; 24 h, same doses): 14.6% | Lethality, abs. ([6]; 24 h, same doses): 6 | Lethality, % ([6]; 48 h, same doses): 22% | Lethality, abs. ([6]; 48 h, same doses): 9 | Lethality, % ([6]; 72 h, same doses): 24.4% | Lethality, abs. ([6]; 72 h, same doses): 10 | Lethality, % ([6]; 96 h, same doses): 27.5% | Lethality, abs. ([6]; 96 h, same doses): 11 | reduction of mortality in rats at the end of the observation period relative to control ([6]; within 4 days of therapy, same doses): no significant impact | neurological deficit, average point under C. P. McGrow scale [1, 7]: 6.90 ± 0.39° points | neurological deficit, average point under C. P. McGrow scale ([1]; day 21, same doses): 4.1 points and 4.10 ± 0.15°* points | Latent period for entrance into dark compartment, prior study [2]: 15.90 ± 0.51°* s | Latent period for entrance into dark compartment, 24 hours after study ([2]; same doses): 71.10 ± 2.21 s
